Reference: paper PMC12040169 (PLOS Biology, 2025)

Experiment: in vitro
Settings: human, hela cells, % viability

Structure (SMILES) | viability at 28.5 h, 10 µM [%]
Cc1ccc(S(=O)(=O)N2CCOCC2)cc1C(=O)NCc1ccco1 [CBK269677] | 102
CCn1c(SCC(=O)Nc2cc(Cl)ccc2O)nnc1-c1ccccc1 [CBK269680] | 87.4
COc1cc(CNCCO)cc(Br)c1OCc1cccnc1 [CBK269681C] | 100
COc1cccc(CNc2ccc3c4c(cccc24)CC3)c1OC [CBK269688] | 92.5
CN1CCN(c2ccc(NC(=O)c3cccc(-c4cc5ccccc5oc4=O)c3)cc2Cl)CC1 [CBK269689] | 83.5
CN1CCN(CCCCOc2ccc(Cc3ccccc3)cc2)CC1 [CBK269692C] | 91.6
COc1cc(OC)c(NC(=O)C(C)Oc2ccc(Cl)c(C)c2)cc1Cl (stereo not drawn) [CBK269697] | 89.7
O=C(CSc1ccc2ccccc2c1)NCc1ccco1 [CBK269699] | 80.3
O=C(Nc1cc(-c2nc3ncccc3o2)ccc1Cl)c1cccnc1 [CBK269700] | 90.8
O=C(CSc1ccc(Br)cc1)NCc1ccco1 [CBK269701] | 86.5
CC(C)C(=O)NC(=S)Nc1ccc2oc(-c3ccncc3)nc2c1 [CBK269702] | 96.4
CN(Cc1ccccc1)C1(O)C(=O)Nc2ccc(Cl)cc21 (stereo not drawn) [CBK269703] | 95.9
Cc1cc(Cl)c(S(=O)(=O)N(C)C)cc1OCC(=O)Nc1ccccc1 [CBK269705] | 89
Nc1cc(C(=O)c2ccc(Br)c(N)c2)ccc1Cl [CBK269708] | 86.6
O=C(Oc1ccc2c(c1)OCO2)c1cc(S(=O)(=O)N2CCOCC2)c(Cl)cc1Cl [CBK269709] | 101
Cc1c(NC(=S)NC(=O)C(C)C)cccc1-c1nc2ncccc2o1 [CBK269712] | 98.3
COc1cccc(CNc2ccc(-c3nc4ncccc4o3)cc2)c1OC [CBK269716] | 91
Cc1ccc(-c2nnc(COc3ccc(-c4cnc5ccccc5n4)cc3)o2)cc1 [CBK269721] | 90.9
Cc1cccc(C(=O)NCc2nnc(SCC(=O)N3CCOCC3)n2C)c1 [CBK269723] | 95.3
COc1ccccc1NC(=O)COc1ccc(C)cc1[N+](=O)[O-] [CBK269724] | 81.6
O=C(CC1(O)C(=O)N(Cc2ccc3c(c2)OCO3)c2ccccc21)c1ccccn1 (stereo not drawn) [CBK269725] | 94.2
CN1CCN(c2ccc(NC(=O)c3ccc([N+](=O)[O-])o3)cc2)CC1 [CBK269727] | 18.8
Cc1ccc(-c2nnc(COC(=O)c3c4c(nc5ccccc35)CCCC4)o2)cc1 [CBK269728] | 105
O=C(Nc1cc(-c2nc3ncccc3o2)ccc1Cl)c1ccco1 [CBK269730] | 104

Structure (SMILES) | viability at 28.5 h, 10 µM [%]
Cc1cccc(CSc2nnc(C(C)NC(=O)c3ccccc3F)n2C)c1 (stereo not drawn) [CBK269732] | 91.6
Cc1ccc(SCCCn2ccnc2)cc1 [CBK269733C] | 86.3
C=CCc1cccc(Cl)c1OCCN1CCN(C)CC1 [CBK269734C] | 90.5
O=C(CSc1nc2ccccc2c(=O)[nH]1)Nc1ccccc1O [CBK269738] | 104
COCc1nnc(SCC(=O)N2CCc3ccccc32)n1-c1ccccc1 [CBK269739] | 83.1
CCn1c(CN2CCOCC2)nnc1SCC(=O)Nc1cccc(Br)c1 [CBK269740] | 85.6
Cc1ccc(-c2nnc(COC(=O)c3cc(O)nc4ccccc34)o2)cc1 [CBK269741] | 88.9
Cc1cccc(C)c1NC(=O)CSc1nnc(C(O)c2ccccc2)n1C (stereo not drawn) [CBK269742] | 84.8
CCN1C(=O)CC(N2CCN(c3cc(-c4ccc(OC)cc4)nc(C)n3)CC2)C1=O (stereo not drawn) [CBK269744] | 106
CS(=O)(=O)c1cccc(S(=O)(=O)N2CCN(Cc3ccccc3)CC2)c1 [CBK269747] | 88.9
CC(C)(CO)NC(=O)c1cc(S(=O)(=O)N2CCOCC2)ccc1Cl [CBK269748] | 94
Cn1c(Cc2ccccc2)nnc1SCC(=O)Nc1ccc(N2CCOCC2)cc1 [CBK269750] | 89.8
C=CCn1c(NCc2ccco2)nc2ccccc21 [CBK269751] | 87.9
Cc1ccccc1OC(C)C(=O)Nc1ccccc1C(=O)N1CCOCC1 (stereo not drawn) [CBK269753] | 103
CCOc1ccc(S(=O)(=O)N2CCC(C(=O)O)CC2)cc1Cl [CBK269759] | 97.4
O=C(CCC1COc2ccccc2O1)N1CCN(Cc2ccccc2)CC1 (stereo not drawn) [CBK269767] | 93.7
CCOc1ccc(S(=O)(=O)N(CC)CC(=O)O)cc1C [CBK269770] | 91.5
CN1CCN(C(=O)c2ccccc2NC(=O)NC2CCCCC2)CC1 [CBK269771] | 94
COc1ccc(-c2noc(CN(C(=O)Cc3ccc(C)cc3)C(C)C)n2)cc1 [CBK269774] | 89.6
NC(=O)C1CCN(CC(=O)Nc2cc(C(F)(F)F)ccc2Cl)CC1 [CBK269776] | 100
O=C(NC1CCCC1)c1ccc2c(c1)C(=O)N(CC1CCCO1)C2=O (stereo not drawn) [CBK269777] | 103
c1ccc(-c2nn3c(CN4CCOCC4)nnc3c3ccccc23)cc1 [CBK269779] | 89
CCC(C)Nc1nc(SCC(=O)OC)nc(N(C)C)n1 (stereo not drawn) [CBK269780] | 95.2
Cn1c(NC(=O)COc2ccccc2)nc2ccccc21 [CBK269783] | 98.7

Structure (SMILES) | viability at 28.5 h, 10 µM [%]
CCn1c(C)c(C)n2c3c(=O)n(CCN4CCOCC4)c(=O)n(C)c3nc12 [CBK269786] | 90.6
O=C(Cc1ccc(Cl)cc1)NCCc1c[nH]c2ccccc12 [CBK269787] | 87
Cc1cc(CNC(=O)COc2cc(Cl)ccc2Cl)c2ccccc2n1 [CBK269788] | 89.1
N#Cc1ccccc1NC(=O)CSc1cnn[nH]1 [CBK269795] | 89.3
Cc1nn(CCCC(=O)O)c(C)c1I [CBK269796] | 91.3
Cc1nn(C(C)CC(=O)NCc2ccco2)c(C)c1Br (stereo not drawn) [CBK269797] | 89.5
Cc1cc2c(SCc3cc(O)[nH]n3)ncnc2s1 [CBK269799] | 93.9
CCC(Sc1nc(C)cc(C)n1)C(=O)Nc1ccc(NC(C)=O)cc1 (stereo not drawn) [CBK269804] | 89
O=C(Cc1cccs1)NCCc1c[nH]cn1 [CBK269805] | 93.2
O=C(O)CC1C(=O)NCCN1Cc1ccc(-c2ccccc2)cc1 (stereo not drawn) [CBK269812] | 91
COc1ccc(Nc2cn(C)nc2C(=O)O)cc1 [CBK269814] | 103
CCOc1ccc(S(=O)(=O)N2CCC(C(=O)NCCO)CC2)cc1 [CBK269817] | 88.6
O=C(O)CCCn1cc(NC(=O)Cc2ccccc2)cn1 [CBK269821] | 93.9
O=C(NCCc1c[nH]cn1)Nc1cccc(C(F)(F)F)c1 [CBK269822] | 105
O=C(O)c1ccc(Nc2ncnc3c2oc2ccccc23)cc1 [CBK269825C] | 92
N#Cc1ccc(NC(=O)CCn2cnnn2)cc1 [CBK269832] | 91.4
CC1CCN(S(=O)(=O)N2CCNCC2)CC1 [CBK269836C] | 91.5
COc1ccccc1C(=O)NCCCc1nc2ccccc2[nH]1 [CBK269837] | 87.1
COc1ccc(S(=O)(=O)N2CCN(C(=O)c3ccco3)CC2)c2ccccc12 [CBK269839] | 86.8
Cn1c(SCCC(=O)O)nnc1-c1ccc2c(c1)OCO2 [CBK269842] | 92.6
Cc1cc(Oc2ccccc2)nc(Oc2ccc(=O)n(-c3ccccc3)n2)n1 [CBK269843] | 106
COc1ccccc1/C=C/CN1CCNC(=O)C1CC(=O)O (stereo not drawn) [CBK269845] | 100
COc1ccc(N2CCN(CC(O)COc3ccc4c(C)cc(=O)oc4c3)CC2)cc1 (stereo not drawn) [CBK269847] | 86.5
Clc1ccc(OCc2ccccc2)c(CNCc2ccccn2)c1 [CBK269850C] | 91.2

Structure (SMILES) | viability at 28.5 h, 10 µM [%]
Cc1c(Cc2ccccc2)sc(NC(=O)c2cccnc2)c1C(N)=O [CBK269851] | 101
O=C(Nc1ccc(N2CCOCC2)c(Cl)c1)c1cccc(-n2cnnc2)c1 [CBK269853] | 95.6
CC(=O)N1CCN(c2ccc(NC(=O)CSc3ccc(C)cc3)cc2)CC1 [CBK269854] | 95.6
O=C(CCn1c(=O)oc2cc(Cl)ccc21)NCc1ccco1 [CBK269857] | 95
N#Cc1c(SCC(=O)O)nc(-c2cccs2)c2c1CCCC2 [CBK269858] | 103
COc1ccc(CNc2ccc(N3CCOCC3)c(C(=O)O)c2)c(OC)c1 [CBK269860] | 91.3
O=C(O)CCC(=O)Nc1ccccc1C(=O)N1CCCCCC1 [CBK269863] | 86.3
COCCNCc1cccc(OCc2ccccc2)c1 [CBK269864C] | 87.9
CCOc1ccc(S(=O)(=O)N(C)CC(=O)N2CCN(C)CC2)cc1Cl [CBK269865] | 101
COc1nc2ccccc2nc1CCC(=O)NCc1ccco1 [CBK269866] | 93.4
CC(C)N(Cc1nc(-c2ccccc2)no1)C(=O)CCc1ccccc1 [CBK269867] | 109
COc1cc(S(=O)(=O)NCCc2ccccc2)c(OC)cc1C [CBK269868] | 94.1
O=c1[nH]c(CSc2nnc(COc3ccccc3)o2)nc2ccccc12 [CBK269869] | 84.9
COc1ccc(-c2nnn(C3CCNCC3)n2)cc1OC [CBK269870C] | 85.3
CC1CN(Cc2nc3c(c(=O)[nH]c(=O)n3C)n2CCc2ccccc2)CC(C)O1 (stereo not drawn) [CBK269876] | 98.1
COc1cc(CNCc2ccccn2)ccc1OCc1cccc(Cl)c1 [CBK269877C] | 94.7
O=C(O)COc1ccc(S(=O)(=O)N2CCc3ccccc32)cc1 [CBK269882] | 102
COc1ccc(-c2ccc(C#N)c(SCc3ccncc3)n2)cc1 [CBK269883] | 102
COCC(=O)NC(C)c1nc2ccccc2n1Cc1ccccc1C (stereo not drawn) [CBK269885] | 88.1
O=C(CSc1cnn[nH]1)Nc1cccc(C(F)(F)F)c1 [CBK269888] | 90.8
COc1cccc(C(=O)Nc2ccc(-c3noc(-c4ccncc4)n3)cc2)c1 [CBK269892] | 93.4
